Measurements reported in ChEMBL document CHEMBL1201862, “PubChem BioAssay data set” (2004).
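Five concentrations, 48 hours, 96-well plates. Abbreviation: GI50, concentration required for 50% inhibition of growth.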 Active and inactive are the calls of the source. No stated cut-off is given here; in the data, active = GI50 up to about 1.1 µM and inactive = higher.

Tests used:
Assay in all cases: growth of human tumour cells (NCI), 48 h
HOP-62 = tested on: HOP-62
CCRF-CEM = tested on: CCRF-CEM
NCI/ADR-RES = tested on: NCI/ADR-RES
SN12C = tested on: SN12C
COLO 205 = tested on: COLO 205
T47D = tested on: T47D
UACC-62 = tested on: UACC-62
CAKI-1 = tested on: CAKI-1
SNB-75 = tested on: SNB-75
Malme-3M = tested on: Malme-3M
NCI-H226 = tested on: NCI-H226
OVCAR-4 = tested on: OVCAR-4
A498 = tested on: A498
BT-549 = tested on: BT-549
K562 = tested on: K562
MDA-MB-231 = tested on: MDA-MB-231
HCT-15 = tested on: HCT-15
OVCAR-3 = tested on: OVCAR-3
NCI-H23 = tested on: NCI-H23
M19-MEL = tested on: M19-MEL

`CC(=O)OCC1OC(OCCCOP(=S)(OCCC#N)OCC2OC(n3ccc(N)nc3=O)C(OC(=O)c3ccccc3)C2OC(=O)c2ccccc2)C(OC(C)=O)C(OC(C)=O)C1OC(C)=O` (centres undefined) was tested, and the GI50 (HOP-62) was 43.5 µM (inactive), the GI50 (CCRF-CEM) was > 100 µM (inactive) and the GI50 (NCI/ADR-RES) was > 100 µM (inactive). The GI50 (SN12C) was > 100 µM (inactive), the GI50 (COLO 205) was > 100 µM (inactive) and the GI50 (T47D) was > 100 µM (inactive). The GI50 (UACC-62) was > 100 µM (inactive), the GI50 (CAKI-1) was > 100 µM (inactive) and the GI50 (SNB-75) was 75.5 µM (inactive). For the same compound, the GI50 (Malme-3M) was > 100 µM (inactive), the GI50 (NCI-H226) was > 100 µM (inactive) and the GI50 (OVCAR-4) was > 100 µM (inactive). For the same compound, the GI50 (A498) was > 100 µM (inactive), the GI50 (BT-549) was > 100 µM (inactive) and the GI50 (K562) was > 100 µM (inactive). For the same compound, the GI50 (MDA-MB-231) was > 100 µM (inactive), the GI50 (HCT-15) was over 100 µM and the GI50 (OVCAR-3) was > 100 µM (inactive). The GI50 (NCI-H23) was > 100 µM (inactive).
For `CCCC/C=C/C1Cc2ccccc2CN1S(=O)(=O)c1ccc(C)cc1` (centres undefined), the GI50 (HOP-62) was 31.5 µM (inactive), the GI50 (CCRF-CEM) was 4.9 µM (inactive) and the GI50 (M19-MEL) was 6.01 µM (inactive). For the same compound, the GI50 (SN12C) was 10.6 µM (inactive), the GI50 (COLO 205) was 7.29 µM (inactive) and the GI50 (UACC-62) was 12.7 µM (inactive). The GI50 (SNB-75) was 13.3 µM (inactive), the GI50 (Malme-3M) was 6.67 µM (inactive) and the GI50 (NCI-H226) was 10 µM (inactive). For the same compound, the GI50 (OVCAR-4) was 5.85 µM (inactive), the GI50 (K562) was 3.64 µM (inactive) and the GI50 (HCT-15) was 8.39 µM. The GI50 (OVCAR-3) was 9.57 µM (inactive) and the GI50 (NCI-H23) was 4.27 µM (inactive).
For `Cc1ccc(/C=N/C23CC4CC(CC(C4)C2)C3)cc1`, the GI50 (HOP-62) was > 100 µM (inactive), the GI50 (M19-MEL) was > 100 µM (inactive) and the GI50 (SN12C) was > 100 µM (inactive). For the same compound, the GI50 (COLO 205) was > 100 µM (inactive), the GI50 (CAKI-1) was > 100 µM (inactive) and the GI50 (SNB-75) was 44.8 µM (inactive). The GI50 (Malme-3M) was 25.1 µM (inactive), the GI50 (NCI-H226) was > 100 µM (inactive) and the GI50 (OVCAR-4) was > 100 µM (inactive). For the same compound, the GI50 (A498) was > 100 µM (inactive), the GI50 (K562) was > 100 µM (inactive) and the GI50 (HCT-15) was over 100 µM. The GI50 (OVCAR-3) was > 100 µM (inactive) and the GI50 (NCI-H23) was > 100 µM (inactive).
`CC(C)(C)OC(=O)NCC(=O)OCc1ccccc1` was tested, and the GI50 (HOP-62) was > 100 µM (inactive), the GI50 (CCRF-CEM) was > 100 µM (inactive) and the GI50 (M19-MEL) was > 100 µM (inactive). The GI50 (SN12C) was > 100 µM (inactive), the GI50 (COLO 205) was > 100 µM (inactive) and the GI50 (UACC-62) was > 100 µM (inactive). The GI50 (CAKI-1) was > 10 µM (inactive), the GI50 (SNB-75) was > 100 µM (inactive) and the GI50 (Malme-3M) was > 100 µM (inactive). For the same compound, the GI50 (A498) was > 100 µM (inactive), the GI50 (K562) was > 100 µM (inactive) and the GI50 (HCT-15) was over 100 µM. For the same compound, the GI50 (OVCAR-3) was > 100 µM (inactive) and the GI50 (NCI-H23) was > 100 µM (inactive).
For `OC1CC(O)c2c(Cl)sc(Cl)c21` (centres undefined), the GI50 (HOP-62) was 21.2 µM (inactive), the GI50 (CCRF-CEM) was 46.1 µM (inactive) and the GI50 (NCI/ADR-RES) was 43.6 µM (inactive). For the same compound, the GI50 (SN12C) was 46.3 µM (inactive), the GI50 (COLO 205) was 18.2 µM (inactive) and the GI50 (T47D) was 26.9 µM (inactive). The GI50 (UACC-62) was 42.8 µM (inactive), the GI50 (CAKI-1) was 31.5 µM (inactive) and the GI50 (SNB-75) was 7.67 µM (inactive). For the same compound, the GI50 (Malme-3M) was 36.3 µM (inactive), the GI50 (NCI-H226) was 26.3 µM (inactive) and the GI50 (OVCAR-4) was 8.79 µM (inactive). The GI50 (A498) was > 100 µM (inactive), the GI50 (BT-549) was 34.6 µM (inactive) and the GI50 (K562) was 62.8 µM (inactive). The GI50 (MDA-MB-231) was 32.1 µM (inactive), the GI50 (HCT-15) was 60.5 µM and the GI50 (OVCAR-3) was 14.8 µM (inactive). The GI50 (NCI-H23) was 21.2 µM (inactive).
With `NC1CCN(c2nc3ccccc3c3c2CCCC3)CC1` the GI50 (HOP-62) was 15.1 µM (inactive), the GI50 (CCRF-CEM) was 4.28 µM (inactive) and the GI50 (NCI/ADR-RES) was 12.2 µM (inactive). For the same compound, the GI50 (SN12C) was 8.67 µM (inactive), the GI50 (COLO 205) was 1.67 µM (inactive) and the GI50 (T47D) was 2.18 µM (inactive). For the same compound, the GI50 (UACC-62) was 1.95 µM (inactive), the GI50 (CAKI-1) was 5.77 µM (inactive) and the GI50 (SNB-75) was 9.93 µM (inactive). For the same compound, the GI50 (Malme-3M) was 7.41 µM (inactive), the GI50 (NCI-H226) was 10.2 µM (inactive) and the GI50 (OVCAR-4) was 1.38 µM (inactive). The GI50 (A498) was 10.3 µM (inactive), the GI50 (BT-549) was 12.7 µM (inactive) and the GI50 (K562) was 1.62 µM (inactive). The GI50 (MDA-MB-231) was 3.43 µM (inactive), the GI50 (HCT-15) was 5.37 µM and the GI50 (OVCAR-3) was 11.9 µM (inactive). For the same compound, the GI50 (NCI-H23) was 14.1 µM (inactive).
In the case of `CCOC(=O)c1oc2c(OC)cc(Cl)c3c2c1CCC3`, the GI50 (CCRF-CEM) is reported as > 100 µM (inactive), the GI50 (M19-MEL) is reported as > 100 µM (inactive) and the GI50 (SN12C) is reported as 64.7 µM (inactive). For the same compound, the GI50 (COLO 205) was > 100 µM (inactive), the GI50 (UACC-62) was > 100 µM (inactive) and the GI50 (SNB-75) was 26.2 µM (inactive). For the same compound, the GI50 (Malme-3M) was > 100 µM (inactive), the GI50 (NCI-H226) was 12.2 µM (inactive) and the GI50 (OVCAR-4) was 38.6 µM (inactive). For the same compound, the GI50 (A498) was 69.8 µM (inactive), the GI50 (K562) was > 100 µM (inactive) and the GI50 (HCT-15) was over 100 µM. The GI50 (OVCAR-3) was 13.6 µM (inactive) and the GI50 (NCI-H23) was > 100 µM (inactive).
With `COc1cccc(NC(=O)CSc2nnc(-c3ccc(/N=C\c4ccc(Cl)cc4)cc3)o2)c1` the GI50 (HOP-62) was 31.6 µM (inactive), the GI50 (CCRF-CEM) was 26.6 µM (inactive) and the GI50 (M19-MEL) was 22.8 µM (inactive). For the same compound, the GI50 (SN12C) was 21.2 µM (inactive), the GI50 (COLO 205) was 19.4 µM (inactive) and the GI50 (UACC-62) was 14.3 µM (inactive). The GI50 (SNB-75) was 23.8 µM (inactive), the GI50 (Malme-3M) was 17.7 µM (inactive) and the GI50 (NCI-H226) was 22.8 µM (inactive). The GI50 (OVCAR-4) was 37.4 µM (inactive), the GI50 (K562) was 32.6 µM (inactive) and the GI50 (HCT-15) was 17.3 µM. The GI50 (NCI-H23) was 19.8 µM (inactive).
For `COc1ccc2c(c1OCC(=O)O)C(=O)C(CCC(=O)O)CC2` (centres undefined), the GI50 (HOP-62) was > 100 µM (inactive), the GI50 (CCRF-CEM) was > 100 µM (inactive) and the GI50 (M19-MEL) was > 100 µM (inactive). The GI50 (SN12C) was > 100 µM (inactive), the GI50 (COLO 205) was > 100 µM (inactive) and the GI50 (UACC-62) was > 100 µM (inactive). The GI50 (CAKI-1) was > 100 µM (inactive), the GI50 (SNB-75) was > 100 µM (inactive) and the GI50 (OVCAR-4) was > 100 µM (inactive). For the same compound, the GI50 (A498) was > 100 µM (inactive), the GI50 (HCT-15) was over 100 µM and the GI50 (OVCAR-3) was > 100 µM (inactive). For the same compound, the GI50 (NCI-H23) was > 100 µM (inactive).
